Usually IC50 stands for the point on the concentration scale where inhibition reaches its midpoint. The term Ki denotes a dissociation constant, usually derived from enzyme kinetics or from competition with a known ligand.

The target of assay [1] is T1, Cathepsin L2 (Homo sapiens, UniProt O60911).
T1 sequence (O60911 whole entry): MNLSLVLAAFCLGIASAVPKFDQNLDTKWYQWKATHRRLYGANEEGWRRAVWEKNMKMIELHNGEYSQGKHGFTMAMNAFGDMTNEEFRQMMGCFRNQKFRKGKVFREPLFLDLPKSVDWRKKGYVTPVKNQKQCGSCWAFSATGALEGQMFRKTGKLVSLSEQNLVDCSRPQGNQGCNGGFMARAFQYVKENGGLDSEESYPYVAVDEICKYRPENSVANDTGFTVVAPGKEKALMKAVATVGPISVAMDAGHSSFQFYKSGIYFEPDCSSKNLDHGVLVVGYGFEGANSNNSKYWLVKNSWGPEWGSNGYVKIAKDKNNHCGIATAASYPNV
In words: Inhibition of human recombinant cathepsin V expressed in Pichia pastoris.

Assay [2] has as its target T1, Cathepsin L2. The experiment in a line: Inhibition of human recombinant cathepsin V expressed in Pichia pastoris by Lineweaver-Burk double-reciprocal plots.

Turning to `COc1c(O)c(CC=C(C)C)c(O)c2c(=O)c3c(CC=C(C)C)ccc(O)c3n(C)c12`, at Cathepsin L2 [1], the IC50 was 2500 nM. For the same compound, the inhibitory constant (Ki) on Cathepsin L2 [2] stood at 500 nM. The corresponding values for `COc1c2c(c(O)c3c(=O)c4cccc(O)c4n(C)c13)CC(C(C)(C)O)O2` (stereo not given) are 5200 nM and 4400 nM. For `COc1c(O)c2c(c3c(=O)c4cccc(O)c4n(C)c13)OC(C)(C)C(O)C2` (stereo not given), in that order: 2800 nM and 1700 nM. In the case of `Cn1c2c(O)cccc2c(=O)c2c(O)cc3c(c21)C=CC(C)(C)O3`, at Cathepsin L2 [1], the concentration for half-maximal inhibition (IC50) came out at 48000 nM. In the case of `CC(C)=CCc1c(O)cc2c(c1O)c(=O)c1c(CC=C(C)C)ccc(O)c1n2C`, at Cathepsin L2 [1], the IC50 was 3900 nM. At Cathepsin L2 [2], the inhibitory constant (Ki) is 1200 nM. As for `COc1c(OC)c(OC)c2c(c1O)c(=O)c1cccc(O)c1n2C` [CITIBRASINE], the half-inhibitory concentration (IC50) on Cathepsin L2 [1] turned out to be 1200 nM. Moreover, the Ki at Cathepsin L2 [2] turned out to be 200 nM. For `COc1c(O)cc(O)c2c(=O)c3cccc(O)c3n(C)c12` [CITRUSININE-II], in that order: 10000 nM and 4200 nM. Turning to `COc1cc(O)c2c(=O)c3cccc(O)c3n(C)c2c1OC` [CITRUSININE-I], on Cathepsin L2 [1], the IC50 amounted to 2200 nM. The Ki at Cathepsin L2 [2] was 1000 nM. The corresponding values for `COc1c(O)c(CC=C(C)C)c(O)c2c(=O)c3cccc(O)c3n(C)c12` [GLYCOCITRINE-IV] are 2200 nM and 1100 nM. In the case of `CC(C)=CCc1c(O)cc(O)c2c(=O)c3cccc(O)c3n(C)c12` [GLYCOCITRINE-I], on Cathepsin L2 [1], the half-maximal inhibitory concentration (IC50) worked out at 25000 nM. In addition, the Ki at Cathepsin L2 [2] worked out at 10000 nM. Consider `COc1c2c(c(O)c3c(=O)c4cccc(O)c4n(C)c13)C=CC(C)(C)O2` [PYRANOFOLINE], for which the IC50 at Cathepsin L2 [1] came to 44000 nM.

For the origin of these results see ChEMBL document CHEMBL1667860, “Acridone alkaloids as potent inhibitors of cathepsin V” (Bioorg Med Chem, 2011).
